Source: US20080255121A1, “Combination Drug for Treating Autoimmune Disease” (DAINIPPON SUMITOMO PHARMA CO., LTD., priority 2004, published 2008)
“And” between values parts separate entries of the source, which are not always exact repeats. Equal entries are not always repeated. Blank lines part the entries; values can stand above or below the compound they belong to.

Columns and labels:
CaMKIIα derived from rat = biological target: T1, CaMKIIα derived from rat (Rattus norvegicus, UniProt P11275); test: Examination of CaMKII inhibitory activity (1), phosphorylation of Autocamtide-2; type: biochemical
T1 construct: purchased Santa Cruz, Inc
Description: Test substances were dissolved in DMSO and diluted to various concentrations with a buffer solution (50 mM Tris-HCl: pH 7.5, 10 mM MgCl2, 1 mM Dithiothreitol (DTT)) (all of them are available from Nacalai Tesque, Inc.) for CaMKII reaction. CaMKIIα (final concentration 0.75 μg/ml) (Santa Cruz, Inc.) derived from rat was mixed with Autocamtide-2® (40 μM) (CALBIOCHEM Company) dissolved in CaMKII reaction buffer solution in the presence of the test substance and with CaMKII activation buffer solution (1 mMCaCl2, 1 μM calmodulin) (Nacalai Tesque, Inc.) and the reaction was started by further adding ATP (50 μM) (Nacalai Tesque, Inc.). The reaction was performed at 30° C. for five minutes and then SDS-PAGE sample buffer solution was added and the reaction was terminated by boiling for five minutes. Proteins in the reaction mixture were separated by 15% SDS-PAGE and blotted onto a PVDF membrane. Phosphorus taken in by Autocamtide-2 was reacted with an anti-phosphorylated serine/threonine antibody (Santa Cruz, Inc.) and quantified by ECL system (Amersham, Inc.) and NIH Image (downloadable from http://rsb.info.nih.gov/nih-image/).

[1] = test system: adjuvant-induced arthritis rats; test: Combination effect on adjuvant-induced arthritis, joint destruction score by soft X-ray (Example 20); type: in vivo, rat; details: Compound (I) 40 mg/kg and/or methotrexate 0.06 mg/kg, maximum 12
Description: Combination effect for adjuvant-induced arthritic rats was examined in the same manner as in Example 17.
Euthanasia was carried out for all the rats by aspiration of high concentration carbon dioxide after the last administration. Both the hind paws were cut off at the middle point of […]. Both the hind paws were fixed with 10% neutral buffered formalin liquid. […] The degree of joint destruction was recorded with a score. Observed sites were three points of the tibia, calcaneum and tarsal bone, and the possible maximum score was 12.
1: Minimum destruction of joints and bones and new formation of cartilages
2: Mild destruction of joints and bones and new formation and light ossification of cartilages
3: Moderate destruction of joints and bones and ossification
4: Severe destruction and deformation of joints and bones and intense ossification

[2] = test system: adjuvant-induced arthritis rats; test: Combination effect on adjuvant-induced arthritis (Example 19); type: in vivo, rat; details: only methotrexate 0.060 mg/kg oral once a day 17 days
Description: Combination effect for rat adjuvant-induced arthritis was examined in the same manner as in Example 17.
The volume of the left hind paw was measured by water replacement method just before the administration and after the last administration, and AUC (the area under the curve formed by plotting the difference of the value at the time of grouping from the value of each time point during the administration period against the time) of the increased volume of the left hind paw was determined. Joint destruction of the right hind paw (injected paw) and the left hind paw (non-injection paw) can be measured by X-ray and this can be also used as the index to evaluate the combination effect.

[3] = test system: experimental allergic encephalomyelitis mice; test: Experimental allergic encephalomyelitis, Compound (I); type: in vivo
From the text: The severity of the condition was indicated as a score (disease score) according to the following criteria.
0.5: Slight paralysis of tail
2: Light paralysis of hind paw
3: Medium to intense paralysis of hind paw or light forelimb paralysis
4: Complete paralysis of hind paw or medium to intense paralysis of forelimb
5: Paralysis of four limbs or toward death period
In the prednisolone administered group as a positive control, prednisolone was suspended in 0.5% methylcellulose solution to prepare a liquid of 0.3 mg/ml for administration and 0.1 ml per 10 g mouse weight was orally administered. In a control group, only 0.5% methylcellulose solution was […] administered. The administration was started on the sensitization day and carried out once a day for consecutive 40 days.

[4] = test system: adjuvant-induced arthritis rats; test: Adjuvant-induced arthritis, therapeutic and prophylactic model; type: in vivo, rat; details: Compound (I) 2.5 to 80 mg/kg
Description: The adjuvant-induced arthritis model is a representative chronic inflammation model caused in rats, and it is widely used for pharmacological evaluation of antiinflammatory drugs and antirheumatic drugs. Accordingly, effects of Compound (I) and Compound (II) were examined in both therapeutic and prophylactic model. In the therapeutic model, the difference of the volume of a hind leg before and after the dosed period was calculated to examine edema suppression effect by the drug administration and the change of edema volume was examined. In the prophylactic model, the volume of a hind paw was measured over time during the dosed period and the effect of the drug for a long term period was examined. Although the hind paw volume or the edema volume was used as the index of efficacy evaluation, the edema volume means the increment from the normal volume of the hind paw which was not sensitized with the adjuvant, and therefore, the both indices can be used as approximately the same meaning.
A liquid paraffin suspension (1 mg/200 μl) of Mycobacterium butyricum (adjuvant) was subcutaneously injected at the tarsal part of the right hind paw of SD or Lewis rats (both male, six-week old) to cause arthritis. In the therapeutic model, 0.5% methylcellulose suspension of Compound (I) or Compound (II) which was prepared so that the dose was 1 ml per 100 g body weight was orally administered once a day for consecutive five days from the 17th day after the injection of the adjuvant. An indomethacin suspension prepared in the similar way was administered as the positive control. The volume of the hind paws was measured respectively for the right and the left by water replacement method just before the administration and in five hours after the last administration and the difference in the values just before the administration and in five hours after the last administration was calculated and assumed as the change in the edema volume. In the prophylatic model, the compounds were administered once a day for consecutive 21 days after the day when the adjuvant was injected. The volume of the right and left hind paws was measured by water replacement method every other day. In the prophylactic model of Compound (II), a suspension of D-penicillamine, an antirheumatic drug, was administered in the same way as a control.

adjuvant arthritis rats = details: reported in Patent Documents 3, 4 and Non-Patent Documents 3 to 5; cited from earlier work
[5] = test system: mouse type III allergy reaction; details: reported in Patent Document 4; cited from earlier work

T1 sequence (P11275 whole entry): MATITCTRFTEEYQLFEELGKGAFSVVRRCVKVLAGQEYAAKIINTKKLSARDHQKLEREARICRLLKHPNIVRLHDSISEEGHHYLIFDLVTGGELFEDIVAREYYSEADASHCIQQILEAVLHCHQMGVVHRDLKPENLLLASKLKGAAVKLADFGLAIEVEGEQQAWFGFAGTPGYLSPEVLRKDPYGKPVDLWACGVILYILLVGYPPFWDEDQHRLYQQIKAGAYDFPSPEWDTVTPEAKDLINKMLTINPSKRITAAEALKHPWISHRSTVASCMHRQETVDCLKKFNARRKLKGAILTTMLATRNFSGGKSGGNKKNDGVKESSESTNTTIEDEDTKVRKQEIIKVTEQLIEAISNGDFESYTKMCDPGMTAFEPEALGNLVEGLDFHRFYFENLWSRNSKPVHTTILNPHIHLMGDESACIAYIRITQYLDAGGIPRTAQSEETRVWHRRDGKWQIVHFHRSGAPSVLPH

Compound: CCN/C(N)=N/c1cc(C(C)c2ccc(-c3ccccc3)c(F)c2)no1.Cl (stereo not shown) [Compound (Ic), N-ethyl-N′-{3-[1-(2-fluorobiphenyl-4-yl)-ethyl]-isoxazol-5-yl}-guanidine hydrochloride]
- Inhibition rate (%) (CaMKIIα derived from rat; Concentration 0.1 μm): 11%
- Inhibition rate (%) (CaMKIIα derived from rat; Concentration 1 μm): 36%
- Inhibition rate (%) (CaMKIIα derived from rat; Concentration 10 μm): 68%

Compound: CN(Cc1cnc2nc(N)nc(N)c2n1)c1ccc(C(=O)N[C@@H](CCC(=O)O)C(=O)O)cc1 [methotrexate, reference compound]
- joint destruction score of the left hind paw, representative individual which showed an average score in the group ([1]; control score 3): 2
- joint destruction score of the right hind paw, representative individual which showed an average score in the group ([1]; control score 10): 9
- increased volume and onset ratio of left hind paw [2]: onset suppressing effect and edema suppressing effect

Compound: C[C@]12C=CC(=O)C=C1CC[C@@H]1[C@@H]2[C@@H](O)C[C@@]2(C)[C@H]1CC[C@]2(O)C(=O)CO [Prednisolone, prednisolone, reference compound]
- weight gain (natural accruement of weight by growth) ([3]; Compound (I) 20 to 80 mg/kg, prednisolone 3 mg/kg, oral once a day 40 days, FIG. 14): strongly suppressed natural accruement of weight by growth
- Death Rate ([3]; Dose 3 mg/kg oral once a day 40 days): 0/10
- Onset Rate ([3]; Dose 3 mg/kg oral once a day 40 days, 3 mg/kg): 2 of 10 and 2/10

Now from value to compound, other results behind:

- Inhibition rate (%) (CaMKIIα derived from rat; Concentration 0.1 μm): 13%
- Inhibition rate (%) (CaMKIIα derived from rat; Concentration 1 μm): 42%
- Inhibition rate (%) (CaMKIIα derived from rat; Concentration 10 μm): 71%
Compound: CC(c1ccc(-c2ccccc2)c(F)c1)c1cc(/N=C(/N)N(C)C)on1.Cl (stereo not shown) [Compound (Ib), N′-{3-[1-(2-fluorobiphenyl-4-yl)-ethyl]-isoxazol-5-yl}-N,N-dimethyl-guanidine hydrochloride]

- Inhibition rate (%) (CaMKIIα derived from rat; Concentration 0.1 μm): 45%
- Inhibition rate (%) (CaMKIIα derived from rat; Concentration 1 μm): 62%
- Inhibition rate (%) (CaMKIIα derived from rat; Concentration 10 μm): 92%
Compound: CNc1nc(C(C)c2ccc(-c3ccccc3)c(F)c2)cs1 (stereo not shown) [Compound (II), 4-[1-(2-fluorobiphenyl-4-yl)ethyl]-2-(methylamino)thiazole]
- hind paw volume / edema volume ([4]; prophylactic model, oral once a day for 21 days, Compound (II) 50 mg/kg, FIGS. 8 and 9): remarkable edema suppressing effect
- change of edema volume of hind paw ([4]; therapeutic model, oral once a day for five days from 17th day, Compound (II) 10 to 50 mg/kg, FIGS. 6 and 7): remarkable edema suppressing effect
- effects on adjuvant arthritis rats (adjuvant arthritis rats): anti-arthritis effects
- edema in mouse type III allergy reaction tests [5]: inhibitory effects on edema
